Experimental data from ChEMBL document CHEMBL5120965, “Moroidin, a Cyclopeptide from the Seeds of Celosia cristata That Induces Apoptosis in A549 Human Lung Cancer Cells” (J Nat Prod, 2022).
The source made the active and inactive calls. The calls are words filed in the database; no cut-off is given here.

How the values were obtained:
A549 [1] = experiment: Induction of microtubule depolymerization in human A549 cells assessed as occurence of cell shrinkage at 2.5 uM measured after 48 hrs by DAPI staining based immunofluorescence assay; format: functional
A549 [2] = experiment: Induction of microtubule depolymerization in human A549 cells assessed as occurence of rounded cells at 2.5 uM measured after 48 hrs by DAPI staining based immunofluorescence assay; format: functional, cell-based
A549 [3] = experiment: Induction of microtubule depolymerization in human A549 cells assessed as reduction in tubulin protein level at 2.5 uM by Western blot analysis; format: functional; set-up: scale not given: the % may be the effect or the level left
A549 [4] = experiment: Antiproliferative activity against human A549 cells assessed as reduction in cell viability at 0.01 to 100 uM measured after 24 to 72 hrs by MTT assay; format: functional, cell-based; details: dose 0.01-100 µM, time 24-72 hrs
A549 [5] = experiment: Cytotoxicity against human A549 cells assessed as reduction in cell viability incubated for 72 hrs by MTT assay; format: functional, cell-based; details: A549, 72 h
NCI-H1299 = experiment: Cytotoxicity against human H1299 cells assessed as reduction in cell viability incubated for 72 hrs by MTT assay; format: functional, cell-based; details: NCI-H1299, 72 h
U-87 MG = experiment: Cytotoxicity against human U87 cells assessed as reduction in cell viability incubated for 72 hrs by MTT assay; format: functional, cell-based, U-87MG ATCC
U-251 = experiment: Cytotoxicity against human U-251 cells assessed as reduction in cell viability incubated for 72 hrs by MTT assay; format: functional, cell-based; details: U-251, 72 h
HCT-116 = experiment: Cytotoxicity against human HCT-116 cells assessed as reduction in cell viability incubated for 72 hrs by MTT assay; format: functional, cell-based; details: HCT-116, 72 h
MCF7 [6] = experiment: Cytotoxicity against human MCF7 cells assessed as reduction in cell viability incubated for 72 hrs by MTT assay; format: functional, cell-based; details: MCF7, 72 h
A549 [7] = experiment: Inhibition of colony formation in human A549 cells up to 20 uM measured after 10 days by crystal violet staining based assay; format: functional, cell-based; details: dose 1.25-20 µM, time 10.0 day, DDE = dose-dependent effect
MCF7 [8] = experiment: Inhibition of colony formation in human MCF7 cells measured after 10 days by crystal violet staining based assay; format: functional, cell-based; details: dose 1.25-20 µM, time 10.0 day, DDE = dose-dependent effect
A549 [9] = experiment: Induction of microtubule depolymerization in human A549 cells assessed as reduction in microtubule network measured after 48 hrs by DAPI staining based immunofluorescence assay; format: functional, cell-based; details: dose 2.5-5 µM
A549 [10] = experiment: Induction of microtubule depolymerization in human A549 cells assessed as fragmentation of microtubule network measured after 48 hrs by DAPI staining based immunofluorescence assay; format: functional, cell-based; details: dose 2.5-5 µM
A549 [11] = experiment: Induction of cell cycle arrest in human A549 cells assessed as increase in accumulation of cells at G2/M phase at 5 to 20 uM measured after 48 hrs by […]propidium iodide staining based flow cytometry analysis (reference value: 8.33%); format: functional; details: dose 5-20 µM
A549 [12] = experiment: Induction of cell cycle arrest in human A549 cells assessed as decrease in ratio of cells at G1 phase measured after 48 hrs by […]propidium iodide staining based flow cytometry analysis; format: functional; details: dose 5-20 µM, DDE = dose-dependent effect
A549 [13] = experiment: Induction of cell apoptosis in human A549 cells assessed as increase in apoptosis rate at 5 uM measured after 48 hrs by annexinV-FITC/propidium iodide staining based flow cytometry analysis (reference value: 3.27%); format: functional
A549 [14] = experiment: Induction of cell apoptosis in human A549 cells assessed as increase in apoptosis rate at 10 uM measured after 48 hrs by annexinV-FITC/propidium iodide staining based flow cytometry analysis (reference value: 3.27%); format: functional
A549 [15] = experiment: Induction of cell apoptosis in human A549 cells assessed as increase in apoptosis rate at 20 uM measured after 48 hrs by annexinV-FITC/propidium iodide staining based flow cytometry analysis (reference value: 3.27%); format: functional
A549 [16] = experiment: Induction of cell apoptosis in human A549 cells assessed as increase in pro-caspase 3 level measured after 48 hrs by Western blot analysis; format: functional, cell-based; details: dose 5-20 µM, DDE = dose-dependent effect
A549 [17] = experiment: Induction of cell apoptosis in human A549 cells assessed as increase in pro-caspase 9 level measured after 48 hrs by Western blot analysis; format: functional, cell-based; details: dose 5-20 µM, DDE = dose-dependent effect
A549 [18] = experiment: Induction of cell apoptosis in human A549 cells assessed as increase in PARP level measured after 48 hrs by Western blot analysis; format: functional, cell-based; details: dose 5-20 µM, DDE = dose-dependent effect
A549 [19] = experiment: Induction of cell apoptosis in human A549 cells assessed as increase in cleaved-caspase 3 level measured after 48 hrs by Western blot analysis; format: functional, cell-based; details: dose 5-20 µM, DDE = dose-dependent effect
A549 [20] = experiment: Induction of cell apoptosis in human A549 cells assessed as increase in cleaved-caspase 9 level measured after 48 hrs by Western blot analysis; format: functional, cell-based; details: dose 5-20 µM, DDE = dose-dependent effect
A549 [21] = experiment: Induction of cell apoptosis in human A549 cells assessed as increase in cleaved PARP level measured after 48 hrs by Western blot analysis; format: functional, cell-based; details: dose 5-20 µM, DDE = dose-dependent effect
A549 [22] = experiment: Induction of cell apoptosis in human A549 cells assessed as increase in Bax expression level at 5 to 20 uM measured after 48 hrs by Western blot analysis; format: functional, cell-based; details: dose 5-20 µM
A549 [23] = experiment: Induction of cell apoptosis in human A549 cells assessed as decrease in Bcl-2 expression level at 5 to 20 uM measured after 48 hrs by Western blot analysis; format: functional, cell-based; details: dose 5-20 µM
A549 [24] = experiment: Induction of cell apoptosis in human A549 cells assessed as increase in Bax/Bcl-2 ratio at 5 to 20 uM measured after 48 hrs by Western blot analysis; format: functional, cell-based; details: dose 5-20 µM
A549 [25] = experiment: Induction of cell apoptosis in human A549 cells assessed as reduction in AKT phosphorylation at 5 to 20 uM measured after 48 hrs by Western blot analysis; format: functional, cell-based; details: dose 5-20 µM
A549 [26] = experiment: Induction of cell apoptosis in human A549 cells assessed as reduction in AKT expression at 5 to 20 uM measured after 48 hrs by Western blot analysis; format: functional, cell-based; details: dose 5-20 µM
A549 [27] = experiment: Antimigratory activity against human A549 cells assessed as migration of cells into scratch area at 0.5 uM measured after 48 hrs by scratch assay based microscopic analysis (reference value: 85.15%); format: functional
A549 [28] = experiment: Antimigratory activity against human A549 cells assessed as migration of cells into scratch area at 1 uM measured after 48 hrs by scratch assay based microscopic analysis (reference value: 85.15%); format: functional
A549 [29] = experiment: Antimigratory activity against human A549 cells assessed as migration of cells into scratch area at 2 uM measured after 48 hrs by scratch assay based microscopic analysis (reference value: 85.15%); format: functional
A549 [30] = experiment: Antimigratory activity against human A549 cells assessed as reduction in number of migrated cells measured after 48 hrs by transwell assay based microscopic analysis; format: functional, cell-based; details: dose 0.5-2 µM, DDE = dose-dependent effect
A549 [31] = experiment: Antiinvasive activity against human A549 cells assessed as reduction in number of invasion cells measured after 48 hrs by transwell assay based microscopic analysis; format: functional, cell-based; details: dose 0.5-2 µM, DDE = dose-dependent effect

SMILES: COc1cc2c(c(OC)c1OC)-c1ccc(OC)c(=O)cc1[C@@H](NC(C)=O)CC2 [COLCHICINE]
- Activity (A549 [1]): Active
- Activity (A549 [2]): Active
- Activity (A549 [3]): 63%
- Activity (A549 [4]): Active

SMILES: CC(C)C[C@@H]1NC(=O)[C@@H](NC(=O)[C@@H]2CCC(=O)N2)[C@H](C(C)C)c2ccc3c4c([nH]c3c2)-n2cnc(c2)C[C@@H](C(=O)O)NC(=O)CNC(=O)[C@H](CCCNC(=N)N)NC(=O)[C@H](C4)NC(=O)[C@H](C(C)C)NC1=O
- IC50 (A549 [5]): 3.2 µM
- IC50 (NCI-H1299): 8.3 µM
- IC50 (U-87 MG): 9.6 µM
- IC50 (U-251): 5.2 µM
- IC50 (HCT-116): 9.9 µM
- IC50 (MCF7 [6]): > 10 µM
- inhibition (A549 [7]): Dde
- inhibition (MCF7 [8]): Dde
- Activity (A549 [9]): Active
- Activity (A549 [10]): Active
- Activity (A549 [3]): 20%
- Activity (A549 [11]): 36.35%
- Activity (A549 [12]): Dde
- Activity (A549 [13]): 6.14%
- Activity (A549 [14]): 11.4%
- Activity (A549 [15]): 20.62%
- Activity (A549 [16]): Dde
- Activity (A549 [17]): Dde
- Activity (A549 [18]): Dde
- Activity (A549 [19]): Dde
- Activity (A549 [20]): Dde
- Activity (A549 [21]): Dde
- Activity (A549 [22]): Active
- Activity (A549 [23]): Active
- Activity (A549 [24]): Active
- Activity (A549 [25]): Active
- Activity (A549 [26]): Active
- Activity (A549 [27]): 60.84%
- Activity (A549 [28]): 40.22%
- Activity (A549 [29]): 21.92%
- Activity (A549 [30]): Dde
- Activity (A549 [31]): Dde
